This experiment relates to skeletal sarcomere (skeletal myosin with actin, tropomyosin, and troponin complex). Kind of experiment: Screen of ATP hydrolysis rate of myosin with calcium-regulated actin filament (actin/tropomyosin/troponin), PK/LDH/NADH coupled enzyme system. The note with it: screen conducted at pCa=6.5; unit not given. Type of experiment: biochemical. On the procedure: For example, test compounds can be assayed in a highly parallel fashion by using multiwell plates by placing the compounds either individually in wells or testing them in mixtures. Assay components including the target protein complex, coupling enzymes and substrates, and ATP can then be added to the wells and the absorbance or fluorescence of each well of the plate can be measured with a plate reader.
In some embodiments, the method uses a 384 well plate format and a 25 μL reaction volume. A pyruvate kinase/lactate dehydrogenase coupled enzyme system (Huang T G and Hackney D D. (1994) J Biol Chem 269(23):16493-501) can be used to measure the rate of ATP hydrolysis in each Well. As will be appreciated by those in the art, the assay components are added in buffers and reagents. The incubation periods can be optimized to give adequate detection signals over the background. The assay can be done in real time giving the kinetics of ATP hydrolysis which increases the signal to noise ratio of the assay.
Actin was purified by first preparing an ether powder of cardiac muscle (Zot H G and Potter J D. (1981) Preparative Biochemistry 11:381-395) as described below. Subsequently, actin was cycled between the filamentous and soluble state through rounds of centrifugation and dialysis (Spudich J A and Watt S. (1971) J. Biol. Chem. 246:4866-4871). It was stored in the filamentous state at 4° C.
Tropomyosin was extracted from the ether powder and separated from the other proteins based on pH dependent precipitations followed by successive ammonium sulfate cuts at 53% and 65% (Smillie L B. (1981) Methods Enzymol 85 Pt B:234-41). The troponins were isolated as an intact complex of TnC, TnT, and TnI. Ether powder is extracted in a high salt buffer. Successive ammonium sulfate cuts of 30% and 45% were done; the precipitate was solubilized by dialysis into a low salt buffer and then further purified on a DEAE Toyopearl column with a 25-350 mM KCl gradient.
Just prior to screening, the actin, tropomyosin, and troponin complex are mixed together in the desired ratio (e.g., 7:1:1) to achieve maximal calcium regulation of the actin filament. The screen is conducted at a pCa=6.5. This calcium concentration is in the physiological range during muscle contraction.
To measure the generation of ADP during the reaction, a pyruvate kinase/lactate dehydrogenase/NADH coupled enzyme system (PK/LDH) is added to the actin. The myosin is kept separately. The plates are read in real time so that kinetic curves are obtained. These compounds are in DMSO and were already spotted onto the bottoms of 384 well plates at 10 to 40 μg/ml final concentration.
• 1. Obtain ˜1000 g skeletal muscle, such as rabbit skeletal muscle. • 2. Grind twice; extract with 2 L solution A for 15 min while stirring; add 4 L cold H2O, filter through gauze; dilute with cold H2O to ionic strength of 0.04, (about 10-fold); let settle for 3 h; collect precipitate at 7,000 rpm in GSA rotor for 15 min. • 3. Disperse pellet in 220 ml solution B; dialyze overnight against 6 L solution C; slowly add ˜400 ml equal volume cold distilled H2O; stir for 30 min; centrifuge at 10,000 rpm for 10 min in GSA rotor. • 4. Centrifuge supernatant at 19,000 rpm for 1 h. • 5. Dilute supernatant to ionic strength of 0.04 (˜8-fold); let myosin settle overnight; collect about 5-6 L fluffy myosin precipitate by centrifuging at 10,000 rpm for 10 min in GSA rotor. • 6. Resuspend pellet in minimal volume of solution G; dialyze overnight against 2 L solution D; centrifuge at 19,000 rpm for 2 h, in cellulose nitrate tubes; puncture tubes and separate myosin from fat and insoluble pellet. • 7. Dilute supernatant to 5-10 mg/ml and dialyze against solution E extensively, load onto DEAE-sephadex column. • 8. […]

On to “3-(ethylpropyl)-5-ethynylimidazo[5,4-b]pyridin-2-ol”, for which the “AC1.4 Median” value stood at 2.366.
As to “3-(ethylpropyl)-5-methylimidazo[5,4-b]pyridin-2-ol”, the “AC1.4 Median” value is 43.299.
Turning to “3-(ethylpropyl)-5-vinylimidazo[5,4-b]pyridin-2-ol”, the “AC1.4 Median” value was determined as 3.836.
On to “5-(dimethylamino)-3-(ethylpropyl)imidazo[5,4-b]pyridin-2-ol”, for which the “AC1.4 Median” value is 2.611.
`C/C=C\c1ccc2nc(O)n(C(CC)CC)c2n1` [5-((1Z)prop-1-enyl)-3-(ethylpropyl)imidazo[5,4-b]pyridin-2-ol]: the “AC1.4 Median” value is listed as 0.840.
In the case of `CCC(CC)n1c(O)nc2ccc(Br)nc21` [5-bromo-3-(ethylpropyl)imidazo[5,4-b]pyridin-2-ol], the “AC1.4 Median” value is on record as 8.050.
As for `CCC(CC)n1c(O)nc2ccc(Cl)nc21` [5-chloro-3-(ethylpropyl)imidazo[5,4-b]pyridin-2-ol], the “AC1.4 Median” value was 21.134.

(Values after patent US7998976B2, “Certain chemical entities, compositions and methods” (Cytokinetics, Inc., priority 2008, dated 2011).)
